Data taken from patent publication US10919941B2, “Functional lipid constructs” (KODE BIOTECH LIMITED, priority 2007, dated 2021).
No end group written: not given here.

Assays:
[1] = test system: natural Mi III antibody reactive human serums; experiment: Positive serum reactivity of modified RBCs in the field; format: cell-based; set-up: key: 0 or ‘−’ no agglutination; 0 or ‘−’ no agglutination; 1+ or 3=very weak agglutination; 1+ or 3=very weak agglutination; 2+ or 5=weak agglutination; 2+ or 5=weak agglutination; 3+ or 8=moderate strong agglutination; 3+ or 8=moderate strong agglutination; 4+ or 10/12=strong agglutination; 4+ or 10/12=strong agglutination; 4+ or 10/12=strong agglutination; conditions: 22 at 50, 17 and 24 at 200 μg/ml; 3 h RT then 18 h 4° C.
Description: The suspensions are either: • 1. incubated for 2 hours at 37° C. before being washed and suspended in a cell medium for serological analysis at a concentration of 0.8 to 3% (Method 1); or • 2. incubated for 3 to 4 hours at room temperature (circa 25° C.) followed by 18 hours at 4° C. before being washed and suspended in a cell medium for serological analysis at a concentration of 0.8 to 3% (Method 2).
Serological reactions are graded or scored by either of two established systems (0 or ‘−’ no agglutination, 1+ or 3=very weak agglutination, 2+ or 5=weak agglutination, 3+ or 8=moderate strong agglutination, 4+ or 10/12=strong agglutination)

antibody negative serums = experiment: False positive reactions of modified RBCs with antibody negative serums/plasma; format: cell-based, human; set-up: key to Reaction score BioVue AHG, PAC samples 1-46, 49, 50, 52, 53 / Reaction score BioVue AHG, PAC sample 47 / Reaction score BioVue AHG, PAC sample 48 / Reaction score BioVue AHG, PAC sample 51 / agglutination score, T series serum 2 / agglutination score, T series serum 42 / agglutination score, T series serum 63 / agglutination score, T series serum 62 / agglutination score, T series serum 7 / agglutination score, T series serum 20 / agglutination score, T series serum 48 / agglutination score, T series serum 22 / agglutination score, T series serum 39 / agglutination score, T series serum 23 / agglutination score, T series serum 30 / agglutination score, T series serum 4 / agglutination score, T series serum 31 / agglutination score, T series serum 44 / agglutination score, T series serum 61 / agglutination score, T series serum 18 / agglutination score, T series serum 21 / agglutination score, T series serum 28 / agglutination score, T series serum 55 / agglutination score, false positive serum T18 / agglutination score, false positive serum T21 / agglutination score, false positive serum T28 / agglutination score, false positive serum T55 / agglutination score, false positive serum T78 / agglutination score, false positive serum T92: 0 or ‘−’ no agglutination; 0 or ‘−’ no agglutination; 1+ or 3=very weak agglutination; 1+ or 3=very weak agglutination; 2+ or 5=weak agglutination; 2+ or 5=weak agglutination; 3+ or 8=moderate strong agglutination; 3+ or 8=moderate strong agglutination; 4+ or 10/12=strong agglutination; 4+ or 10/12=strong agglutination; 4+ or 10/12=strong agglutination
[2] = Australia, Melb Path, 45 tested, construct 50 μg/ml
[3] = Australia, RNSH, 500 tested, construct 50 μg/ml
[4] = Malaysia, UMMC, 749 tested, construct 50 μg/ml
[5] = Philippines, Metrop Hosp, 60 tested, construct 50 μg/ml
[6] = blood donor plasma, construct 50 μg/ml (2 hours, 37° C.)

Substance: M22: DOPE peptide-lipid construct: MUTK peptide SQTNDKHKRD, leader c, spacer CMG(2) (SQTNDKHKRDC; also: DOPE peptide-lipid construct via leader Cys, spacer CMG(2))
- score vs Mi III reactive serum 488-6 [1]: 10
- score vs Mi III reactive serum 589-6 [1]: 0
- score vs Mi III reactive serum 621-3 [1]: 5
- score vs Mi III reactive serum 912485657-9 [1]: 0
- score vs Mi III reactive serum 914146821-8 [1]: 0
- score vs Mi III reactive serum 922390844-5 [1]: 0
- score vs Mi III reactive serum 926190919-0 [1]: 0
- score vs Mi III reactive serum 926555294-1 [1]: 0
- score vs Mi III reactive serum 927175131-4 [1]: 0
- score vs Mi III reactive serum 927299700-1 [1]: 0
- score vs Mi III reactive serum 927516053-2 [1]: 0
- score vs Mi III reactive serum 927619701-8 [1]: 0
- score vs Mi III reactive serum 932360876-4 [1]: 0
- score vs Mi III reactive serum 932467774-5 [1]: 0
- score vs Mi III reactive serum 932809044-1 [1]: 0
- score vs Mi III reactive serum 942223755-1 [1]: 0
- score vs Mi III reactive serum 942404708-4 (row interpreted Mur) [1]: 0
- score vs Mi III reactive serum 942404708-4 (row interpreted other) [1]: 0
- score vs Mi III reactive serum 942421413-0 [1]: 0
- score vs Mi III reactive serum 942423002-4 [1]: 0
- score vs Mi III reactive serum 942433813-3 [1]: 0
- score vs Mi III reactive serum 942433855-3 [1]: 0
- score vs Mi III reactive serum 942442720-2 [1]: 0
- score vs Mi III reactive serum 942448627-8 [1]: 0
- score vs Mi III reactive serum 942753165-4 [1]: 0
- score vs Mi III reactive serum 942762589-1 [1]: 0
- score vs Mi III reactive serum 9322338631 [1]: 0
- score vs Mi III reactive serum 9325490091 [1]: 5
- score vs Mi III reactive serum 9327986660 [1]: 8
- score vs Mi III reactive serum 9328118428 [1]: 0
- score vs Mi III reactive serum 9328154853 [1]: 0
- score vs Mi III reactive serum 9328791834 [1]: 5
- score vs Mi III reactive serum 9424248012 [1]: 0
- score vs Mi III reactive serum 9424292604 [1]: 0
- score vs Mi III reactive serum 9424396133 [1]: 0
- score vs Mi III reactive serum 9425256505 [1]: 0
- score vs Mi III reactive serum 9427455417 [1]: 0
- score vs Mi III reactive serum 9427613497 [1]: 0
- score vs Mi III reactive serum 9427615156 [1]: 0
- score vs Mi III reactive serum S-3 [1]: 0
- % Positive, BioVue (antibody negative serums; Australia, CSL, 100 tested, construct 50 μg/ml): 3.0%
- Number Positive, BioVue (antibody negative serums; Australia, CSL, 100 tested, construct 50 μg/ml, 3 h RT then 18 h 4° C.): 3
- % Positive, BioVue (antibody negative serums; [2]): 4.5%
- Number Positive, BioVue (antibody negative serums; [2]): 2
- % Positive, BioVue (antibody negative serums; [3]): 0.4%
- % Positive, DiaMed (antibody negative serums; [3]): 0.4%
- Number Positive, BioVue (antibody negative serums; [3]): 2
- Number Positive, DiaMed (antibody negative serums; [3]): 2
- % Positive, BioVue (antibody negative serums; [4]): 2.5%
- Number Positive, BioVue (antibody negative serums; [4]): 19
- % Positive, Tube (antibody negative serums; [5]): 0%
- Number Positive, Tube (antibody negative serums; [5]): 0
- Reaction score BioVue AHG, PAC sample 47 (antibody negative serums; [6]): 0
- Reaction score BioVue AHG, PAC sample 48 (antibody negative serums; [6]): 0
- Reaction score BioVue AHG, PAC sample 51 (antibody negative serums; [6]): 0
- Reaction score BioVue AHG, PAC samples 1-46, 49, 50, 52, 53 (antibody negative serums; [6]): 0
- % False Positives (antibody negative serums; panel of blood donor plasma samples (PAC), BioVue AHG, construct 50 μg/ml): 0%
